ChEMBL document CHEMBL6127080, “Design, synthesis and biological evaluation of novel diphenylamine analogues as NLRP3 inflammasome inhibitors” (Bioorg Med Chem, 2024)

Assays:
[1] = biological target: NACHT, LRR and PYD domains-containing protein 3 (Mus musculus) (UniProt Q8R4B8); assay: Inhibition of NLRP3 inflammasome activation in mouse […] cells assessed as reduction in LPS/ATP-induced IL-1 beta release at 1 uM pretreated with LPS for 4.5 hrs followed by compound addition for 30 mins prior to ATP addition and measured after 30 mins by ELISA relative to control; assay type: cell-based; settings: J774.A1, time 5.5 hrs
Chain of NACHT, LRR and PYD domains-containing protein 3 (Mus musculus) (Q8R4B8 whole entry, the tested form may be a part): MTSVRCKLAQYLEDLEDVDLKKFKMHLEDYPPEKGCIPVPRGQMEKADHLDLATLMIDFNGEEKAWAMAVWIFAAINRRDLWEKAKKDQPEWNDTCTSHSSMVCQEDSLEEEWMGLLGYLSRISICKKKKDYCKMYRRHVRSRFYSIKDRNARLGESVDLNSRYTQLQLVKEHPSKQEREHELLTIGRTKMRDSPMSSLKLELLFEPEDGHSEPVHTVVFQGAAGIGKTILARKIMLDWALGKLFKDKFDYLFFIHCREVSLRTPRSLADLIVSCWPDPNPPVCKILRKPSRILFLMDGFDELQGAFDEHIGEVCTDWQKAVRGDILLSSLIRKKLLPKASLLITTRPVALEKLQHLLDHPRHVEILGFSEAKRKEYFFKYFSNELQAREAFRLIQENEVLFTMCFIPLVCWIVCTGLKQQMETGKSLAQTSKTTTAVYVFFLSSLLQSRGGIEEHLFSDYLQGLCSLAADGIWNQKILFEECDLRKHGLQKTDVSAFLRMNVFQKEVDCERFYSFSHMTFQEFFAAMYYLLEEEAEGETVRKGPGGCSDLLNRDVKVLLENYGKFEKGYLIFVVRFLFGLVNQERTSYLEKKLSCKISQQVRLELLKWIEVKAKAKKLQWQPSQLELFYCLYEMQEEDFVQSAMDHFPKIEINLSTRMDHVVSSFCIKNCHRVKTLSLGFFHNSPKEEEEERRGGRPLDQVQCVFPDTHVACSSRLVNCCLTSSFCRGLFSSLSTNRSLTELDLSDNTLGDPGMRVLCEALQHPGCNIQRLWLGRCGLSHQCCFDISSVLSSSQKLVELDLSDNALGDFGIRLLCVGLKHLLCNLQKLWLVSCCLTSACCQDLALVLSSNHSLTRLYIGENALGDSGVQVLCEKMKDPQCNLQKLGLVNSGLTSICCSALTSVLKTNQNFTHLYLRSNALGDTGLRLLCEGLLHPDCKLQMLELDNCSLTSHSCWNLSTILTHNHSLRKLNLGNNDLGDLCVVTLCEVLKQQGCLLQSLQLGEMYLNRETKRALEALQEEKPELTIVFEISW

[2] = biological target: NACHT, LRR and PYD domains-containing protein 3 (Mus musculus) (UniProt Q8R4B8); assay: Inhibition of NLRP3 inflammasome activation in mouse […] cells assessed as reduction in LPS/ATP-induced IL-1 beta release at 10 uM pretreated with LPS for 4.5 hrs followed by compound addition for 30 mins prior to ATP addition and measured after 30 mins by ELISA relative to control; assay type: cell-based; settings: J774.A1, time 5.5 hrs
[3] = biological target: NACHT, LRR and PYD domains-containing protein 3 (Mus musculus, UniProt Q8R4B8); assay: Inhibition of NLRP3 inflammasome activation in mouse […] cells assessed as reduction in LPS/ATP-induced IL-1 beta release pretreated with LPS for 4.5 hrs followed by compound addition for 30 mins prior to ATP addition and measured after 30 mins by ELISA; assay type: cell-based, J774.A1
Chain of NACHT, LRR and PYD domains-containing protein 3 (Q8R4B8 whole entry, the tested form may be a part): as above

[4] = Cytotoxicity against mouse J774.A1 cells; assay type: toxicity, cell-based
[5] = Stability in rat plasma incubated measured upto 48 hrs by HPLC method; assay type: ADME, cell-free
[6] = Stability in rat liver homogenate incubated measured upto 48 hrs by HPLC method; assay type: ADME, tissue-based; settings: tissue homogenate
J774.A1 = assay: Cytotoxicity against mouse J774.A1 cells at 50 uM; assay type: toxicity, cell-based; settings: j774.a1, 5.5 h

Row | Compound | inhibition [1] | inhibition [2] | also measured
1 | CCC(=O)Nc1ccc(-c2ccccc2N(Cc2cc(F)ccc2OCCOC)C(=O)Cc2ccsc2)cc1 | 42.7% | 83.8% | –
2 | CCC(=O)Nc1ccc(-c2ccccc2N(Cc2cc(Cl)ccc2OCCOC)C(=O)c2ccc(F)cc2)cc1 | – | – | IC50 [3]: 340 nM; IC50 [4]: 50000 nM; Stability [5]: Stable; Stability [6]: Stable
3 | C#CCCCC(=O)Nc1ccc(-c2ccccc2N(Cc2cc(Cl)ccc2OCCOC)C(=O)Cc2ccsc2)cc1 | -0.88% | 49.6% | –
4 | CCCS(=O)(=O)Nc1ccc(-c2ccccc2N(Cc2cc(Cl)ccc2OCCOC)C(=O)c2ccc(F)cc2)cc1 | 58.9% | 67.6% | –
5 | CCC(=O)Nc1ccc(-c2ccccc2N(Cc2cc(Cl)ccc2OCCOC)C(=O)c2c(F)c(F)c(F)c(F)c2F)cc1 | 39.7% | 23.6% | –
6 | COCCOc1ccc(Cl)cc1CN(C(=O)Cc1ccsc1)c1ccccc1-c1ccc(NC(=O)C2CC2)cc1 | 27.8% | 63.9% | –
7 | COCCOc1ccc(Cl)cc1CN(C(=O)Cc1ccsc1)c1ccccc1-c1ccc(NC(=O)Cc2ccccc2)cc1 | 44.5% | 84.3% | –
8 | CC(C)(O)c1coc(S(=O)(=O)NC(=O)Nc2c3c(cc4c2CCC4)CCC3)c1 | – | – | IC50 [3]: 15 nM
9 | CCC(=O)Nc1ccc(-c2ccccc2N(Cc2cc(Cl)ccc2OCC(C)(F)F)C(=O)Cc2ccsc2)cc1 | 70.1% | 89.9% | IC50 [3]: 550 nM
10 | CCCC(=O)Nc1ccc(-c2ccccc2N(Cc2cc(Cl)ccc2OCCOC)C(=O)Cc2ccsc2)cc1 | 53.9% | 68.2% | IC50 [3]: 1030 nM
11 | COCCOc1ccc(Cl)cc1CN(C(=O)Cc1ccsc1)c1ccccc1-c1ccc(NC(=O)C2CCCCC2)cc1 | -2.37% | 39.5% | –
12 | CCNC(=O)Nc1ccc(-c2ccccc2N(Cc2cc(Cl)ccc2OCCOC)C(=O)Cc2ccsc2)cc1 | 56.9% | 84.4% | –
13 | CCS(=O)(=O)Nc1ccc(-c2ccccc2N(Cc2cc(Cl)ccc2OCCOC)C(=O)c2ccc(F)cc2)cc1 | 55.4% | 68.2% | –
14 | CCS(=O)(=O)Nc1ccc(-c2ccccc2N(Cc2cc(Cl)ccc2OCCOC)C(=O)Cc2ccsc2)cc1 | 27.5% | 42.5% | –
15 | CCC(=O)Nc1ccc(-c2ccccc2N(Cc2ccc(F)cc2)C(=O)c2ccc(F)cc2)cc1 | 40.5% | 39.6% | –
16 | CCC(=O)Nc1ccc(-c2ccccc2N(Cc2ccc(C(F)(F)F)cc2)C(=O)c2ccc(F)cc2)cc1 | 49.7% | 82.1% | –
17 | COCCOc1ccc(Cl)cc1CN(C(=O)Cc1ccsc1)c1ccccc1-c1ccc(NC(=O)OCc2ccccc2)cc1 | 10.6% | 54.4% | –
18 | COCCOc1ccc(Cl)cc1CN(C(=O)Cc1ccsc1)c1ccccc1-c1ccc(NC(=O)/C=C/c2ccccc2)cc1 | 11.9% | 36.7% | –

Second part, led by results:

Row | inhibition [1] | inhibition [2] | Compound | also measured
19 | 1.56% | 33.9% | COCCOc1ccc(Cl)cc1CN(C(=O)Cc1ccsc1)c1ccccc1-c1ccc(NC(C)=O)cc1 | –
20 | 28.6% | 58.1% | CCCC(CCC)C(=O)Nc1ccc(-c2ccccc2N(Cc2cc(Cl)ccc2OCCOC)C(=O)Cc2ccsc2)cc1 | –
21 | 24.5% | 72.1% | C=CC(=O)Nc1ccc(-c2ccccc2N(Cc2cc(Cl)ccc2OCCOC)C(=O)Cc2ccsc2)cc1 | –
22 | 29.2% | 78.4% | CCNC(=S)Nc1ccc(-c2ccccc2N(Cc2cc(Cl)ccc2OCCOC)C(=O)Cc2ccsc2)cc1 | –
23 | 27.8% | 74.8% | CCC(=O)Nc1ccc(-c2ccccc2N(Cc2cc(F)ccc2OCC(C)(F)F)C(=O)Cc2ccsc2)cc1 | –
24 | 67.5% | 81.8% | CCCCCC(=O)Nc1ccc(-c2ccccc2N(Cc2cc(Cl)ccc2OCCOC)C(=O)Cc2ccsc2)cc1 | IC50 [3]: 590 nM
25 | 36.1% | 27.7% | CCC(=O)Nc1ccc(-c2ccccc2N(Cc2cc(Cl)ccc2OCCOC)C(=O)c2ccc(F)c(F)c2)cc1 | –
26 | 76.7% | 93.5% | CCC(=O)Nc1ccc(-c2ccccc2N(Cc2cc(Cl)ccc2OCCOC)C(=O)Cc2ccc(F)cc2)cc1 | IC50 [3]: 650 nM
27 | 11.1% | 85.4% | COCCOc1ccc(Cl)cc1CN(C(=O)Cc1ccsc1)c1ccccc1-c1ccc(NC(=O)C(C)C)cc1 | –
28 | 54.1% | 84.5% | COCCOc1ccc(Cl)cc1CN(C(=O)Cc1ccsc1)c1ccccc1-c1ccc(NC(=O)[C@@H]2CCC(=O)N2)cc1 | IC50 [3]: 860 nM
29 | 72.3% | 92.5% | CCC(=O)Nc1ccc(-c2ccccc2N(Cc2cc(Cl)ccc2OCCOC)C(=O)Cc2ccsc2)cc1 | IC50 [3]: 850 nM
30 | 7.12% | 45.4% | CCCCCC(=O)Nc1ccc(-c2ccccc2N(Cc2cc(Cl)ccc2OCCOC)C(=O)c2ccc(F)cc2)cc1 | –
31 | 51.5% | 73.7% | CCCCS(=O)(=O)Nc1ccc(-c2ccccc2N(Cc2cc(Cl)ccc2OCCOC)C(=O)Cc2ccsc2)cc1 | –
32 | 73% | 90.5% | COCCOc1ccc(Cl)cc1CN(C(=O)Cc1ccsc1)c1ccccc1-c1ccc(NC(=O)CBr)cc1 | IC50 [3]: 310 nM; Activity (J774.A1): > 97%
33 | 31.4% | 61.1% | CCCS(=O)(=O)Nc1ccc(-c2ccccc2N(Cc2cc(Cl)ccc2OCCOC)C(=O)Cc2ccsc2)cc1 | –
34 | 52.5% | 77.4% | CCC(=O)Nc1ccc(-c2ccccc2N(Cc2cc(Cl)ccc2OCCOC)C(=O)c2cc(F)c(F)c(F)c2)cc1 | –
